According to US9636338B2, “Phenyl-dihydropyridine derivatives as inhibitors of aldosterone synthase” (Hoffmann-La Roche Inc., priority 2013, dated 2017):

How the values were obtained:
human CYP11B1 = human CYP11B1 (Homo sapiens (Human), UniProt P15538); assay: G-402 cellular enzyme assay, human CYP11B1 (cortisol release, HTRF); type: cell-based; details: G-402 cells expressing human CYP11B1; 1 μM Deoxycortisol
Excerpt: (§1) Herein we identified the use of the G-402 cell line as a host cell to ectopically express (transiently or stably) enzymes of the CYP11 family. Specifically we developed stable G-402 cells expressing ectopically human CYP11B1, human CYP11B2, human CYP11A1, cynmolgus CYP11B1 or cynomolgus CYP11B2 enzyme activity. Importantly the identified cell line G-402 expresses co-factors (adrenodoxin and adrenodoxin reductase) important for the activity of the CYP11 family and no relevant enzyme activity of the CYP11 family (in comparison to H295R cells) was detected in these cells. Therefore the G-402 cell line is uniquely suited as a host cell for the ectopic expression of enzymes from the CYP11 family. G-402 cells can be obtained from ATCC (CRL-1440) and were originally derived from a renal leiomyoblastoma.
(§2) The expression plasmids contains the ORF for either human/cyno CYP11B1 or CYP11B2 under the control of a suitable promoter (CMV-promoter) and a suitable resistance marker (neomycin). Using standard techniques the expression plasmid is transfected into G-402 cells and these cells are then selected for expressing the given resistance markers. Individual cell-clones are then selected and assessed for displaying the desired enzymatic activity using 11-Deoxycorticosterone (Cyp11B2) or 11-Deoxycortisol (Cyp11B1) as a substrate.
(§3) G-402 cells expressing CYP11 constructs were established as described above and maintained in McCoy's 5a Medium Modified, ATCC Catalog No. 30-2007 containing 10% FCS and 400 μg/ml G418 (Geneticin) at 37° C. under an atmosphere of 5% CO2/95% air. Cellular enzyme assays were performed in DMEM/F12 medium containing 2.5% charcoal treated FCS and appropriate concentration of substrate (0.3-10 uM 11-Deoxycorticosterone, 11-Deoxycortisol or Corticosterone). For assaying enzymatic activity, cells were plated onto 96 well plates and incubated for 16 h. An aliquot of the supernatant is then transferred and analyzed for the concentration of the expected product (Aldosterone for CYP11B2; Cortisol for CYP11B1). The concentrations of these steroids can be determined using HTRF assays from CisBio analyzing either Aldosterone or Cortisol.
(§4) Inhibition of the release of produced steroids can be used as a measure of the respective enzyme inhibition by test compounds added during the cellular enzyme assay. The dose dependent inhibition of enzymatic activity by a compound is calculated by means of plotting added inhibitor concentrations (x-axes) vs. measured steroid/product level (y-axes). The inhibition is then calculated by fitting the following 4-parameter sigmoidal function (Morgan-Mercer-Flodin (MMF) model) to the raw data points using the least squares method:
(§5) [formula] wherein, A is the maximum y value, B is the EC50 factor determined using XLFit, C is the minimum y value and D is the slope value.
(§6) EC50 values for compounds claimed herein were tested with the G402-based assay system described. Cyp11B2 enzyme activity was tested in presence of 1 μM Deoxycorticosterone and variable amounts of inhibitors; Cyp11B1 enzyme activity was tested in presence of 1 μM Deoxycortisol and variable amounts of inhibitors.

CYP11B2 = CYP11B2 (Homo sapiens (Human), UniProt P19099); assay: G-402 cellular enzyme assay, human CYP11B2 (aldosterone release, HTRF); type: cell-based; details: G-402 cells expressing human CYP11B2; 1 μM Deoxycorticosterone
Excerpt: as §1, §2, §3, §4, §5, §6

[1] = rat CKD model, cited from earlier work; for plasma aldosterone: FAD286 4 weeks of treatment, spironolactone 4 and 8 weeks; for angiotensin II and salt-stimulated PAI-1 mRNA expression: aorta and heart

Sequence of CYP11B2 (P19099 25-503): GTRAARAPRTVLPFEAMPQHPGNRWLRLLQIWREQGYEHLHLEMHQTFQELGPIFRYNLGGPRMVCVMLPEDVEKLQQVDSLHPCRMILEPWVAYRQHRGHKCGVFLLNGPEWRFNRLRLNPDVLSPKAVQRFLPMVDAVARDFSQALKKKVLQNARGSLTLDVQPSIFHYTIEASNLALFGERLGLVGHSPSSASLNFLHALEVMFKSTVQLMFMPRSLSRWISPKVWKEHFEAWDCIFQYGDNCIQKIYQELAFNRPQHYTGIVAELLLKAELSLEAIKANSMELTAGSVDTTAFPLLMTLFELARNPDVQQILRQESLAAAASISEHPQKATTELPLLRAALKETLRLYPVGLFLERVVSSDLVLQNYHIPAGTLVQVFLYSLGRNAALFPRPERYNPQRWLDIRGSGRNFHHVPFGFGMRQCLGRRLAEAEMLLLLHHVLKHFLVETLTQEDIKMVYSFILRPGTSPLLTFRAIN
Sequence of human CYP11B1 (P15538 25-503): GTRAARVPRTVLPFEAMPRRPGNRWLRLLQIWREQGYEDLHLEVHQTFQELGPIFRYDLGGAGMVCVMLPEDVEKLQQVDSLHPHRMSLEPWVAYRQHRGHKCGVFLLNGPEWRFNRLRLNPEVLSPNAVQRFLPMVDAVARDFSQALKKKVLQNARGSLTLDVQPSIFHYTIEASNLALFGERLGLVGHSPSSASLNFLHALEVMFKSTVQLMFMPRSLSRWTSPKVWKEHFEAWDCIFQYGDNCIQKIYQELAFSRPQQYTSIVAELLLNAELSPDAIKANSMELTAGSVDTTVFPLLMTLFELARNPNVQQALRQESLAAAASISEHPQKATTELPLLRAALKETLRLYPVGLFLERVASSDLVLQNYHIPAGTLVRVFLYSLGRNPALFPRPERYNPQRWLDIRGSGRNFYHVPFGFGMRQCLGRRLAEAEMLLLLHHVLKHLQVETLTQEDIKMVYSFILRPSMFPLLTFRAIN

SMILES | EC50 (human CYP11B1) [µM] | EC50 (CYP11B2) [nM] | plasma aldosterone [1] | angiotensin II and salt-stimulated PAI-1 mRNA expression [1]
NC1CCc2cncc(-c3ccc(C(F)(F)F)c(F)c3)c21 (racemic) [Example 1, (rac)-4-(3-Fluoro-4-(trifluoromethyl)phenyl)-6,7-dihydro-5H-cyclopenta[c]pyridin-5-amine] | 5.35 | 263 | – | –
OC1CCc2cncc(-c3ccc(C(F)(F)F)c(F)c3)c21 (racemic) [Example 2, (rac)-4-(3-Fluoro-4-(trifluoromethyl)phenyl)-6,7-dihydro-5H-cyclopenta[c]pyridin-5-ol] | 2.34 | 69 | – | –
CC1(O)CCc2cncc(-c3ccc(C(F)(F)F)c(F)c3)c21 (racemic) [Example 3, (rac)-4-(3-Fluoro-4-(trifluoromethyl)phenyl)-5-methyl-6,7-dihydro-5H-cyclopenta[c]pyridin-5-ol] | 2.34 | 45 | – | –
OC1(c2ccccc2)CCc2cncc(-c3ccc(C(F)(F)F)c(F)c3)c21 (racemic) [Example 4, (rac)-4-(3-Fluoro-4-(trifluoromethyl)phenyl)-5-phenyl-6,7-dihydro-5H-cyclopenta[c]pyridin-5-ol] | 1.96 | 50 | – | –
OC1CCc2cncc(-c3ccc(C(F)(F)F)cc3F)c21 (racemic) [Example 5, (rac)-4-[2-Fluoro-4-(trifluoromethyl)phenyl]-6,7-dihydro-5H-cyclopenta[c]pyridin-5-ol] | 3.33 | 133 | – | –
CC1(O)CCc2cncc(-c3ccc(C(F)(F)F)cc3F)c21 (racemic) [Example 6, (rac)-4-[2-Fluoro-4-(trifluoromethyl)phenyl]-5-methyl-6,7-dihydrocyclopenta[c]pyridin-5-ol] | > 30 | 739 | – | –
CC(C)C1(O)CCc2cncc(-c3ccc(C(F)(F)F)cc3F)c21 (racemic) [Example 7, (rac)-4-[2-Fluoro-4-(trifluoromethyl)phenyl]-5-isopropyl-6,7-dihydrocyclopenta[c]pyridin-5-ol] | 14.4 | 740 | – | –
OC1(c2ccccc2)CCc2cncc(-c3ccc(C(F)(F)F)cc3F)c21 (racemic) [Example 8, (rac)-4-[2-Fluoro-4-(trifluoromethyl)phenyl]-5-phenyl-6,7-dihydrocyclopenta[c]pyridin-5-ol] | 7.38 | 33 | – | –
CCOC(=O)CC1CCc2cncc(-c3ccc(C(F)(F)F)c(F)c3)c21 (racemic) [Example 11, (rac)-Ethyl 2-[4-[3-fluoro-4-(trifluoromethyl)phenyl]-6,7-dihydro-5H-cyclopenta[c]pyridin-5-yl]acetate] | 0.367 | 64 | – | –
CNC(=O)CC1CCc2cncc(-c3ccc(C(F)(F)F)c(F)c3)c21 (racemic) [Example 12, (rac)-2-[4-[3-Fluoro-4-(trifluoromethyl)phenyl]-6,7-dihydro-5H-cyclopenta[c]pyridin-5-yl]-N-methyl-acetamide] | 1.03 | 113 | – | –
O=C(CC1CCc2cncc(-c3ccc(C(F)(F)F)c(F)c3)c21)NCC1CC1 (racemic) [Example 13, (rac)-N-(Cyclopropylmethyl)-2-[4-[3-fluoro-4-(trifluoromethyl)phenyl]-6,7-dihydro-5H-cyclopenta[c]pyridin-5-yl]acetamide] | 1.15 | 60 | – | –
CCCNC(=O)CC1CCc2cncc(-c3ccc(C(F)(F)F)c(F)c3)c21 (racemic) [Example 14, (rac)-2-[4-[3-Fluoro-4-(trifluoromethyl)phenyl]-6,7-dihydro-5H-cyclopenta[c]pyridin-5-yl]-N-propyl-acetamide] | 2.6 | 1530 | – | –
O=C(CC1CCc2cncc(-c3ccc(C(F)(F)F)c(F)c3)c21)N1CCCCC1 (racemic) [Example 15, (rac)-2-[4-[3-Fluoro-4-(trifluoromethyl)phenyl]-6,7-dihydro-5H-cyclopenta[c]pyridin-5-yl]-1-(1-piperidyl)ethanone] | > 30 | 832 | – | –
O=C(CC1CCc2cncc(-c3ccc(C(F)(F)F)c(F)c3)c21)N1CCOCC1 (racemic) [Example 16, (rac)-2-[4-[3-Fluoro-4-(trifluoromethyl)phenyl]-6,7-dihydro-5H-cyclopenta[c]pyridin-5-yl]-1-morpholino-ethanone] | 3.63 | 1020 | – | –
O=C(CC1CCc2cncc(-c3ccc(C(F)(F)F)c(F)c3)c21)Nc1ccon1 (racemic) [Example 17, (rac)-2-[4-[3-Fluoro-4-(trifluoromethyl)phenyl]-6,7-dihydro-5H-cyclopenta[c]pyridin-5-yl]-N-isoxazol-3-yl-acetamide] | 0.311 | 100 | – | –
O=C(CC1CCc2cncc(-c3ccc(C(F)(F)F)c(F)c3)c21)Nc1cc[nH]n1 (racemic) [Example 18, (rac)-2-[4-[3-Fluoro-4-(trifluoromethyl)phenyl]-6,7-dihydro-5H-cyclopenta[c]pyridin-5-yl-]-N-(1H-pyrazol-3-yl)acetamide] | 0.282 | 597 | – | –
O=C(CC1CCc2cncc(-c3ccc(C(F)(F)F)cc3F)c21)N1CCCC1 (racemic) [Example 19, (rac)-2-[4-[2-Fluoro-4-(trifluoromethyl)phenyl]-6,7-dihydro-5H-cyclopenta[c]pyridin-5-yl]-1-pyrrolidin-1-yl-ethanone] | 8.47 | 442 | – | –
CCN(C)C(=O)CC1CCc2cncc(-c3ccc(C(F)(F)F)cc3F)c21 (racemic) [Example 20, (rac)-N-Ethyl-2-[4-[2-fluoro-4-(trifluoromethyl)phenyl]-6,7-dihydro-5H-cyclopenta[c]pyridin-5-yl-]-N-methyl-acetamide] | 6 | 213 | – | –
CC(C)N(C)C(=O)CC1CCc2cncc(-c3ccc(C(F)(F)F)cc3F)c21 (racemic) [Example 21, (rac)-2-[4-[2-Fluoro-4-(trifluoromethyl)phenyl]-6,7-dihydro-5H-cyclopenta[c]pyridin-5-yl]-N-isopropyl-N-methyl-acetamide] | 8.36 | 413 | – | –
CN(C(=O)CC1CCc2cncc(-c3ccc(C(F)(F)F)cc3F)c21)C1CC1 (racemic) [Example 22, (rac)-N-Cyclopropyl-2-[4-[2-fluoro-4-(trifluoromethyl)phenyl]-6,7-dihydro-5H-cyclopenta[c]pyridin-5-yl-]-N-methyl-acetamide] | 9.44 | 957 | – | –
CCN(C(=O)CC1CCc2cncc(-c3ccc(C(F)(F)F)cc3F)c21)C1CC1 (racemic) [Example 23, (rac)-N-Cyclopropyl-N-ethyl-2-[4-[2-fluoro-4-(trifluoromethyl)phenyl]-6,7-dihydro-5H-cyclopenta[c]pyridin-5-yl]acetamide] | 8.61 | 487 | – | –
C[C@H]1CCCN1C(=O)CC1CCc2cncc(-c3ccc(C(F)(F)F)cc3F)c21 (mixture of isomers) [Example 24, (rac)-2-[4-[2-Fluoro-4-(trifluoromethyl)phenyl]-6,7-dihydro-5H-cyclopenta[c]pyridin-5-yl]-1-[(2S)-2-methylpyrrolidin-1-yl]ethanone] | 3.97 | 205 | – | –
OC1(c2ccccc2)CCc2cncc(-c3ccc(C(F)(F)F)cc3F)c21 (single isomer, unassigned; (+)) [Example 9, (+)-4-[2-Fluoro-4-(trifluoromethyl)phenyl]-5-phenyl-6,7-dihydrocyclopenta[c]pyridin-5-ol] | 35 | 742 | – | –
OC1(c2ccccc2)CCc2cncc(-c3ccc(C(F)(F)F)cc3F)c21 (single isomer, unassigned; (-)) [Example 10, (−)-4-[2-Fluoro-4-(trifluoromethyl)phenyl]-5-phenyl-6,7-dihydrocyclopenta[c]pyridin-5-ol] | 8.13 | 63 | – | –
N#Cc1ccc([C@H]2CCCc3cncn32)cc1 [FAD286] | – | – | reduced | not FAD286 enhanced
CC(=O)S[C@@H]1CC2=CC(=O)CC[C@]2(C)[C@H]2CC[C@@]3(C)[C@@H](CC[C@@]34CCC(=O)O4)[C@H]12 [spironolactone] | – | – | increased | enhanced
